Measured values as given in patent publication US11155542B2, “Antimicrobial compounds, their use for the treatment of mammalian infections and a new metabolic mechanism” (priority 2016, dated 2021).
Converted amounts (≈) assume the structure as drawn.

Key:
[1] = Cytotoxicity determination (HeLa); format: cell-based; settings: human, HeLa cells (DSM ACC 57)
Description: The test items were dissolved in DMSO (typically 10 mg/mL, less soluble compounds lower). The solutions were diluted in RPMI 1640 medium. HeLa cells (DSM ACC 57) were grown in RPMI 1640 and harvested at the logarithmic growth phase after soft trypsinization using 0.25% trypsin in phosphate buffered saline (PBS) containing 0.02% ethylenediaminetetraacetic acid (EDTA). For each experiment, approximately 10,000 cells were seeded with 0.1 mL culture medium per well of the 96-well microplates. HeLa cells were pre-incubated for 48 h prior to the addition of the test compounds (final DMSO concentration ≤0.5%), which were carefully diluted on the subconfluent monolayers. Incubation was then conducted in a humidified atmosphere at 37° C. and 5% CO2. The adherent HeLa cells were fixed by glutaraldehyde and stained with a 0.05% solution of methylene blue for 10 min. After gently washing, the stain was eluted with 0.2 mL of 0.33 N HCl in the wells. The optical densities were measured at 660 nm in a SUNRISE microplate reader (TECAN).

[2] = Blank plasma from untreated animals spiked with BTZ043; format: in vitro ADME
Text: It was therefore reasoned, that a possible explanation of this phenomenon would involve a yet unknown metabolite that was either thermally or oxidatively unstable when exposed to air.

[3] = system: M. vaccae 10670; assay: MIC M. vaccae 10670; format: cell-based; settings: Mycolicibacterium vaccae
[4] = Minipig plasma samples after oral BTZ043; format: in vivo, minipigs; settings: plasma samples after incubation at room temperature, in some samples
Description: In order to reveal potentially overlooked metabolites, additional metabolic studies of BTZ043 were performed that incorporated careful analysis of highly resolved HPLC chromatograms of plasma samples after different incubation times at room temperature. To ensure maximum stability of the chromatographic conditions, all solvents were carefully degassed through vacuum treatment and/or sparging with nitrogen. […] The concomitant drastic increase of the BTZ043 peak area (in some samples >100%) emphasized the significance of this transient metabolite. […] It was suspected that this metabolite could be formed through an enzymatic reduction of BTZ043 and that it is unstable towards oxygen from air.
Minipig plasma samples: Minipigs received oral doses of 360 mg/kg BTZ043. Blood was collected 2 h subsequent to administration of the compound formulation, immediately cooled on ice and centrifuged at 4° C. and 3000 rpm to yield plasma aliquots which were snap frozen and stored at −80° C. Plasma aliquots (50 μL) were mixed with acetonitrile (200 μL) on ice and under inert conditions (Don Whitley Scientific, anaerobic workstation), vortexed, treated in an ultrasonic bath (3-5 s) and centrifuged at 4° C. and 9750 rpm. The supernatants were concentrated with a nitrogen stream to a residual volume of approximately 40 μL and analyzed by HPLC and LC-HRMS.

[5] = system: M. marinum; assay: MIC M. marinum; format: cell-based; settings: Mycobacterium marinum
[6] = format: in vitro ADME; settings: 5 µg/mL
Description: Human: A BTZ043 solution in DMSO (5 mg/mL) was prepared and 1 μL of this solution was added to 1 mL aliquots fresh whole blood. The mixtures were shaken at 37° C. for 2 h or 16 h and centrifuged at 4° C. and 3000 rpm to yield plasma. Plasma samples (60 μL) were mixed with acetonitrile (240 μL) on ice, vortexed, treated in an ultrasonic bath (3-5 s) and centrifuged at 4° C. and 9750 rpm. The supernatants were concentrated with a nitrogen stream to a residual volume of approximately 40 μL and analyzed by HPLC and LC-HRMS.

[7] = system: Mtb H37Rv; assay: Resazurin microtiter assay (REMA), MIC Mtb H37Rv; format: cell-based; settings: Mycobacterium tuberculosis
[8] = Chemical stability and solubility of Meisenheimer complexes and methylated derivatives; settings: room temperature
[9] = Fresh blood assay, mice; format: in vitro ADME, C57BL/6J mice; settings: in vitro incubation of fresh whole blood, HPLC-HRMS
Description: Mice: Fresh whole blood was collected from C57BL/6J mice after cervical dislocation under isoflurane anesthesia. Test item solutions were prepared in DMSO (5 mg/mL) and 0.4 μL of this solution was added to 400 μL fresh whole blood. The mixtures were incubated at 37° C. for 4 h and centrifuged at 4° C. and 3000 rpm to yield plasma. Plasma samples (50 μL) were mixed with acetonitrile (200 μL) on ice, vortexed, treated in an ultrasonic bath (3-5 s) and centrifuged at 4° C. and 9750 rpm. The supernatants were concentrated with a nitrogen stream to a residual volume of approximately 40 μL and analyzed by HPLC and LC-HRMS.

| SMILES | CC50 [1] | Peak areas of BTZ043 in spiked blank plasma over time [2] | MIC [3] | Increase of the BTZ043 peak area in plasma samples over time [4] | MIC [5] | Transformation of BTZ043 to 5b in fresh whole human blood [6] | MIC [7] | Solubility and stability of the methylated derivatives [8] | Formation of the Meisenheimer complex (reduced form) in the blood assay [9] |
| --- | --- | --- | --- | --- | --- | --- | --- | --- | --- |
| C[C@H]1COC2(CCN(c3nc(=O)c4cc(C(F)(F)F)cc([N+](=O)[O-])c4s3)CC2)O1 [BTZ043, (S)-2-(2-methyl-1,4-dioxa-8-azaspiro[4.5]decan-8-yl)-8-nitro-6-(trifluoro-methyl)-4H-1,3-benzothiazin-4-one, reference compound] | > 50000 ng/mL | remained completely unchanged over time | < 1.2 ng/mL | > 100% | 4 ng/mL (≈ 0.00927 µM) | transformation of BTZ043 to 5b after several hours | 1 ng/mL (≈ 0.00232 µM) | – | – |
| COC1=C2C=C(C(F)(F)F)CC([N+](=O)[O-])=C2SC(N2CCC3(CC2)OC[C@H](C)O3)=N1 [Compound 6a] | – | – | – | – | – | – | – | sufficiently soluble and stable at room temperature | – |
| COC1=C2CC(C(F)(F)F)=CC([N+](=O)[O-])=C2SC(N2CCC3(CC2)OC[C@H](C)O3)=N1 [Compound 6b] | – | – | – | – | – | – | – | sufficiently soluble and stable at room temperature | – |
| Cc1c(C(F)(F)F)cc2c(=O)nc(N3CCC4(CC3)OC[C@H](C)O4)sc2c1[N+](=O)[O-] [Example 9a, (S)-7-Methyl-2-(2-methyl-1,4-dioxa-8-azaspiro[4.5]decan-8-yl)-8-nitro-6-(trifluoromethyl)-4H-1,3-benzothiazin-4-one] | 38900 ng/mL (≈ 87.3 µM) | – | 39 ng/mL (≈ 0.0876 µM) | – | 250 ng/mL (≈ 0.561 µM) | – | 500 ng/mL (≈ 1.12 µM) | – | formed only fairly detectable amounts of the Meisenheimer complex |
| Cc1c(C(F)(F)F)cc([N+](=O)[O-])c2sc(N3CCC4(CC3)OC[C@H](C)O4)nc(=O)c12 [Example 9b, (S)-5-Methyl-2-(2-methyl-1,4-dioxa-8-azaspiro[4.5]decan-8-yl)-8-nitro-6-(trifluoromethyl)-4H-1,3-benzothiazin-4-one] | > 50000 ng/mL | – | < 1.2 ng/mL | – | 8 ng/mL (≈ 0.018 µM) | – | 8 ng/mL (≈ 0.018 µM) | – | could only be detected in trace amounts |
| Cc1c(C(F)(F)F)cc([N+](=O)[O-])c2sc(N3CCN(CC4CCCCC4)CC3)nc(=O)c12 [Example 16, 2-(4-(Cyclohexylmethyl)piperazin-1-yl)-5-methyl-8-nitro-6-(trifluoromethyl)-4H-1,3-benzothiazin-4-one] | > 25000 ng/mL | – | < 1.2 ng/mL | – | 1 ng/mL (≈ 0.00213 µM) | – | 0.5 ng/mL (≈ 0.00106 µM) | – | – |
